The source of these data is patent US20240415918A1, “Polypeptide and its use as a CCK receptor agonist/antagonist” (Centre for Regenerative Medicine & Health, Hong Kong …, priority 2021, published 2024).

Series [1] is described as follows: Pharmacokinetics in KM mice after intravenous administration. To be noted: male, mouse, plasma, 1 mg/kg.
In series [2] the test system is neocortex of memory-deficient mice. As to the kind of experiment: Long-term potentiation, in vitro field potential recording of brain slices (MED64), memory-deficient mice. It counts as cell-based. The note with it: compound injected for five minutes. An excerpt:
An in vitro electrophysiological electrical signal recording method was used to investigate whether compound HT-267, compound HT-177, and compound HT-178 can induce long-term potentiation in the neocortex of memory-deficient mice. The MED64 low-noise multi-electrode recording system was used to record the electrical signals of brain slices cultured in vitro.

For a further series, the system named is neocortex of senile mice. Nature of the series: Long-term potentiation, in vitro field potential recording of brain slices (MED64), senile mice. In kind it is cell-based. The note with it: compound injected for five minutes. An excerpt: Long-term potentiation (LTP) is considered by researchers to be one of the memory mechanisms. We used an in vitro electrophysiological electrical signal recording method to investigate whether compound HT-267 can induce long-term potentiation in the neocortex of senile mice.
We used an MED64 low-noise multi-electrode recording system to record the electrical signals of brain slices cultured in vitro.

The test system of series [3] is tri-transgenic Alzheimer's mice (3×Tg-AD). As to the kind of experiment: Morris water maze, Alzheimer's mice. It counts as in vivo. The note with it: intraperitoneal injection. An excerpt:
Adult male tri-transgenic Alzheimer's mice (3×Tg-AD) were housed under standard conditions with free access to food and water. Our Morris water maze experiment for testing Alzheimer's mice mainly included two parts: positioning navigation experiment and space exploration experiment. The positioning navigation experiment lasted for 8-10 days, and the mice were put into the water four times a day from four entry points facing the pool wall, and the time they spent in finding the hidden platform under the water surface (evasion latency) was recorded. The space exploration experiment was to remove the platform after the positioning navigation experiment, and then put the mice into the pool, record their swimming tracks within one minute, investigate the memory of the mice on the original platform, and calculate the proportion of exploration duration of the mice in the quadrant where the original platform was located (target quadrant). Alzheimer's mice were confirmed to have memory deficiency in the Morris water maze experiment, showing not only a longer evasion latency for positioning the hidden platform in the positioning navigation experiment, but also a worse memory backtracking ability in the space exploration experiment. We randomized Alzheimer's mice into four groups, with the first group given intraperitoneal injection of the CCK4 solution, the second group given intraperitoneal injection of the solvent of CCK4 solution as a control, the third group given intraperitoneal injection of the compound HT-267 solution, and the fourth group given intraperitoneal injection of the solvent of HT-267 solution as a control.

Series [4] concerns neocortex of Alzheimer's mice. As to the kind of experiment: Long-term potentiation, in vitro field potential recording of brain slices (MED64), Alzheimer's mice. In kind it is cell-based. To be noted: compound injected for five minutes. The source says:
An in vitro electrophysiological electrical signal recording method was used to investigate whether compound HT-267 can induce long-term potentiation in the neocortex of Alzheimer's mice. The MED64 low-noise multi-electrode recording system was used to record the electrical signals of brain slices cultured in vitro. […] It was shown that compound HT-267 could induce long-term potentiation in the neocortex of Alzheimer's mice.

Series [5] deals with T1, CCK-B receptors (CHO-CCK) (Homo sapiens, UniProt P32239).
T1 construct: expressed in transfected cells; host or cells: CHO (CHO-CCK model cells)
T1 sequence (P32239 1-447): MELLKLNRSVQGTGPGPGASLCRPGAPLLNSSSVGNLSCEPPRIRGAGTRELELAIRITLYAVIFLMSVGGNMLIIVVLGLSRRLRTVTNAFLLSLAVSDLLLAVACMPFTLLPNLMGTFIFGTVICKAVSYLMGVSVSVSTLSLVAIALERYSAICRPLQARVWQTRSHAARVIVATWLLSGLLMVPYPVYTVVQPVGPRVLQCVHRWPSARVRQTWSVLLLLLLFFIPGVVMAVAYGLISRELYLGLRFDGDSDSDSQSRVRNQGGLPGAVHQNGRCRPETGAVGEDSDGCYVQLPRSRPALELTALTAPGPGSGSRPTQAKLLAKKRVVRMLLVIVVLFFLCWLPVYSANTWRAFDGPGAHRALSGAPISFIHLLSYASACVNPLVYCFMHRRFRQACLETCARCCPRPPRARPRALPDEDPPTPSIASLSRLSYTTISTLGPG
Nature of the series: Calcium flux (Fluo-8) antagonist test on CHO-CCK model cells in presence of CCK8. In kind it is cell-based. The note with it: in presence of 10 nM CCK8. For orientation: A change in cytosolic calcium serves as a functional read-out for many receptors and channels.

The target of series [6] is T1, CCK-B receptors (CHO-CCK). As to the kind of experiment: Calcium flux (Fluo-8) agonist test on CHO-CCK model cells. In kind it is cell-based. To be noted: CHO-CCK cells. An outline of the steps:
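Agonist-mode Fluo-8 calcium flux read on CHO-CCK cells after dye loading 30 min at 37 °C plus 30 min at room temperature.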

“Also recorded” adds a separate entry of the source.

In turn, `CSCC[C@H](NC(=O)[C@@H](Cc1c[nH]c2ccccc12)NC(C)=O)C(=O)N[C@@H](CC(=O)O)C(=O)N[C@@H](Cc1cccc(Br)c1)C(N)=O` [HT-267, Ac-D-Trp-Met-Asp-Phe(3-Br)-NH2] gave an AUC(0-inf) in series [1] of 302 ng·h/mL. The molecule also yielded a Cmax in series [1] of 1930 ng/mL. In addition, in series [1], the Tmax was found to be 1.98 min. The half-life in series [1] (T1/2, KM mice male, I.V. 1 mg/kg) is 96.1 min. Also, the “basal field potential after administration (long-term potentiation)” value was “enhanced, and the enhancement lasted for more than one hour” in series [2]; “enhanced, and the enhancement lasted for more than one hour” in the series on neocortex of senile mice; “enhanced, and the enhancement lasted for more than one hour” in series [4]. In addition, in series [3], the “proportion of exploration duration in the target quadrant vs control” value was “significantly higher than the control group; also recorded: slightly better than the CCK4 administration group”. For the same molecule, the “spatial exploration tracks in space exploration experiment” value in series [3] is “more spatial exploration tracks at the original position of the platform”. The “evasion latency in positioning navigation experiment vs control” value in series [3] (CCK4 four times a day 10 days, HT-267 once a day 8 days) is reported as “shorter than that of the control group”. Moreover, the EC50 was found to be 23.8 nM in series [5] and 0.113 nM in series [6] (Fluo-8 calcium flux, 100% control = 20 nM CCK8). Also, the “agonistic/antagonistic activity on CCK-B receptors (in words)” value in series [6] (calcium signal) was “more active”.

By AUC(0-inf) is commonly meant the area under the concentration-time curve extrapolated to infinity. The term Cmax denotes the peak of the concentration-time curve. Broadly, the Tmax is the time at which the peak concentration occurs. By half-life is commonly meant how long it takes for the measured level to halve. In general, EC50 refers to the concentration needed to bring the measured effect to its halfway point.
